Measured values as given in patent US20230295234A1, “ANTIMICROBIAL PEPTIDOMIMETICS” (SPEXIS AG, priority 2020, published 2023).
Where two headings read alike, the source gives them in different places. Bridge positions count the residues as written; N and C are the ends. Square brackets hold non-standard residues; d marks the D form. Peptide text beside a SMILES is read from it. Gly(N-2-aminoethyl) = NCCNCC(=O)O; Pen = CC(C)(S)[C@H](N)C(=O)O; dDab = NCC[C@@H](N)C(=O)O; Nle = CCCC[C@H](N)C(=O)O; Orn = NCCC[C@H](N)C(=O)O; Dab = NCC[C@H](N)C(=O)O

Key:
[1] = tested on: Escherichia coli MCR-1 Af 45
How it was run: (§1)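 First, bacterial colonies are suspended in saline and adjusted to 0.5 McFarland. Next, the suspension is diluted into cation-adjusted Mueller-Hinton II broth (approx. 5×10^5 CFU/mL). Finally, it is added to two-fold serially diluted peptide, with polysorbate 80 at 0.002% final.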

[2] = tested on: Klebsiella pneumoniae SSI3010; details: SSI3010
How it was run: as §1

[3] = tested on: Escherichia coli ATCC 25922; details: ATCC 25922
How it was run: as §1

[4] = tested on: human red blood cells (hRBC); assay: Hemolysis of human red blood cells; format: cell-based; details: red cells of human, 1 h
How it was run: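 Percent hemolysis is OD540 of peptide-treated supernatant relative to water-lysed cells. Each peptide was tested at 200 μg/mL against 20% (v/v) washed human erythrocytes. Incubation was 1 h at 37 °C, 300 rpm.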

[5] = Mueller-Hinton broth II, 18-20 hours at 35° C.

SMILES	Escherichia coli MCR-1 Af 45 MIC ([1]; MCR-1 Af 45)	Klebsiella pneumoniae SSI3010 MIC [2]	Escherichia coli ATCC 25922 MIC [3]	Hemolysis at 0.2 g/L [4]	Escherichia coli MCR-1 Af 45 MIC [1, 5]
CC[C@H](C)[C@H](NC(=O)[C@@H]1CCCN1C(=O)[C@@H](NC(=O)CN(C)C(=O)[C@H](CCCNC(=N)N)NC(=O)[C@@H](N)CCCCN)C(C)C)C(=O)N[C@@H](Cc1ccccc1)C(=O)N[C@@H](Cc1ccc(O)cc1)C(=O)N[C@@H]1C(=O)N[C@@H](CC(N)=O)C(=O)N[C@@H](CCCNC(=N)N)C(=O)N[C@@H](CCN)C(=O)N[C@@H]([C@@H](C)O)C(=O)N[C@H](CCN)C(=O)N[C@@H](CCCCN)C(=O)N[C@H](C(=O)N[C@@H](CCN)C(=O)N[C@@H](CCCNC(=N)N)C(=O)N[C@@H](Cc2ccc(O)cc2)C(=O)O)CSSC1(C)C [Example 89, Lys-Arg-Sar-Val-Pro-Ile-Phe-Tyr-Pen-Asn-Arg-Dab-Thr-^DDab-Lys-Cys-Dab-Arg-Tyr] (HELM PEPTIDE1{K.R.[Sar].V.P.I.F.Y.[Pen].N.R.[Dab].T.[NCC[C@@H](N[*:1])C(=O)[*:2]].K.C.[Dab].R.Y}$PEPTIDE1,PEPTIDE1,9:R3-16:R3$$$V2.0)	≤0.03125 mg/L	0.0625 mg/L	0.0625 mg/L	0%	–
CC[C@H](C)[C@H](NC(=O)CN(CCN)C(=O)[C@@H](NC(=O)[C@@H]1CCCN1C(=O)[C@H](CCCCN)NC(=O)[C@@H](N)CCCCN)C(C)C)C(=O)N[C@H](C(=O)N[C@@H](Cc1ccc(O)cc1)C(=O)N[C@H]1CSSC[C@@H](C(=O)N[C@@H](CCN)C(=O)N[C@@H](CCCNC(=N)N)C(=O)N[C@@H](Cc2ccc(O)cc2)C(=O)O)NC(=O)[C@H](CCCCN)NC(=O)[C@@H](CCN)NC(=O)[C@H]([C@@H](C)O)NC(=O)[C@H](CCN)NC(=O)[C@H](CCCNC(=N)N)NC(=O)[C@H](CC(N)=O)NC1=O)[C@@H](C)CC [Example 102, Lys-Lys-Pro-Val-Ndab-Ile-Ile-Tyr-Cys-Asn-Arg-Dab-Thr-^DDab-Lys-Cys-Dab-Arg-Tyr] (HELM PEPTIDE1{K.K.P.V.[NCCN(CC(=O)[*:2])[*:1]].I.I.Y.C.N.R.[Dab].T.[NCC[C@@H](N[*:1])C(=O)[*:2]].K.C.[Dab].R.Y}$PEPTIDE1,PEPTIDE1,9:R3-16:R3$$$V2.0)	0.0625 mg/L	0.0625 mg/L	0.0625 mg/L	0%	–
CC[C@H](C)[C@H](NC(=O)[C@@H]1C[C@@H](O)CN1C(=O)[C@@H](N)C(C)C)C(=O)N[C@H](C(=O)N[C@@H](Cc1ccc(O)cc1)C(=O)N[C@@H]1C(=O)N[C@@H](CC(N)=O)C(=O)N[C@@H](CCCNC(=N)N)C(=O)N[C@@H](CCN)C(=O)N[C@@H]([C@@H](C)O)C(=O)N[C@H](CN)C(=O)N[C@@H](CCCCN)C(=O)N[C@H](C(=O)N[C@@H](CCN)C(=O)N[C@@H](CCCNC(=N)N)C(=O)N[C@@H](Cc2ccc(O)cc2)C(=O)O)CSSC1(C)C)[C@@H](C)O [Example 149] (HELM PEPTIDE1{V.[Hyp].I.T.Y.[Pen].N.R.[Dab].T.[NC[C@@H](N[*:1])C(=O)[*:2]].K.C.[Dab].R.Y}$PEPTIDE1,PEPTIDE1,6:R3-13:R3$$$V2.0)	–	0.5 mg/L	0.25 mg/L	0%	0.25 mg/L
CC[C@H](C)[C@H](NC(=O)[C@@H](NC(=O)[C@@H]1CCCN1C(=O)[C@@H](NC(=O)[C@@H]1CCCN1C(=O)CN(CCCCN)C(=O)[C@@H](N)CCCCN)C(C)C)[C@@H](C)CC)C(=O)N[C@@H](Cc1ccc(O)cc1)C(=O)N[C@H]1CSSC[C@@H](C(=O)N[C@@H](CCN)C(=O)N[C@@H](CCCNC(=N)N)C(=O)N[C@@H](Cc2ccc(O)cc2)C(=O)O)NC(=O)[C@H](CCCCN)NC(=O)[C@@H](CCN)NC(=O)[C@H]([C@@H](C)O)NC(=O)[C@H](CCN)NC(=O)[C@H](CCCNC(=N)N)NC(=O)[C@H](CC(N)=O)NC1=O [Example 100] (HELM PEPTIDE1{K.[NCCCCN(CC(=O)[*:2])[*:1]].P.V.P.I.I.Y.C.N.R.[Dab].T.[NCC[C@@H](N[*:1])C(=O)[*:2]].K.C.[Dab].R.Y}$PEPTIDE1,PEPTIDE1,9:R3-16:R3$$$V2.0; N-terminus assumed)	≤0.03125 mg/L	0.0625 mg/L	0.03125 mg/L	0%	–
CC[C@H](C)[C@H](NC(=O)CN(CCN)C(=O)[C@@H](NC(=O)CN(CCN)C(=O)[C@@H](N)CCCCN)C(C)C)C(=O)N[C@H](C(=O)N[C@@H](Cc1ccc(O)cc1)C(=O)N[C@@H]1C(=O)N[C@@H](CC(N)=O)C(=O)N[C@@H](CCCNC(=N)N)C(=O)N[C@@H](CCN)C(=O)N[C@@H]([C@@H](C)O)C(=O)N[C@H](CCN)C(=O)N[C@@H](CCCCN)C(=O)N[C@H](C(=O)N[C@@H](Cc2ccc(O)cc2)C(=O)N[C@@H](CCCNC(=N)N)C(=O)N[C@@H](Cc2ccc(O)cc2)C(=O)O)CSSC1(C)C)[C@@H](C)O [Example 62, Lys-Ndab-Val-Ndab-Ile-Thr-Tyr-Pen-Asn-Arg-Dab-Thr-^DDab-Lys-Cys-Tyr-Arg-Tyr] (H-K[Gly(N-2-aminoethyl)]V[Gly(N-2-aminoethyl)]ITY[Pen]NR[Dab]T[dDab]KCYRY-OH; disulfide 8-15)	0.125 mg/L	0.25 mg/L	0.25 mg/L	0%	–
CC[C@H](C)[C@H](NC(=O)CN(CCN)C(=O)[C@@H](NC(=O)[C@@H]1C[C@@H](O)CN1C(=O)[C@@H](N)CCCCN)C(C)C)C(=O)N[C@H](C(=O)N[C@@H](Cc1ccc(O)cc1)C(=O)N[C@@H]1C(=O)N[C@@H](CC(N)=O)C(=O)N[C@@H](CCCNC(=N)N)C(=O)N[C@@H](CCN)C(=O)N[C@@H]([C@@H](C)O)C(=O)N[C@H](CCN)C(=O)N[C@@H](CCCCN)C(=O)N[C@H](C(=O)N[C@@H](CCN)C(=O)N[C@@H](CCCNC(=N)N)C(=O)N[C@@H](Cc2ccc(O)cc2)C(=O)O)CSSC1(C)C)[C@@H](C)O [Example 47, Lys-Hyp-Val-Ndab-Ile-Thr-Tyr-Pen-Asn-Arg-Dab-Thr-^DDab-Lys-Cys-Dab-Arg-Tyr] (HELM PEPTIDE1{K.[Hyp].V.[NCCN(CC(=O)[*:2])[*:1]].I.T.Y.[Pen].N.R.[Dab].T.[NCC[C@@H](N[*:1])C(=O)[*:2]].K.C.[Dab].R.Y}$PEPTIDE1,PEPTIDE1,8:R3-15:R3$$$V2.0)	≤0.03125 mg/L	0.25 mg/L	0.0625 mg/L	0%	–
CC[C@H](C)[C@H](NC(=O)[C@@H]1C[C@@H](O)CN1C(=O)[C@@H](NC(=O)[C@@H]1CCCN1C(=O)[C@H](CCCCN)NC(=O)[C@@H](N)CCCCN)C(C)C)C(=O)N[C@H](C(=O)N[C@@H](Cc1ccc(O)cc1)C(=O)N[C@H]1CSSC[C@@H](C(=O)N[C@@H](CCN)C(=O)N[C@@H](CCCNC(=N)N)C(=O)N[C@@H](Cc2ccc(O)cc2)C(=O)O)NC(=O)[C@H](CCCCN)NC(=O)[C@@H](CCN)NC(=O)[C@H]([C@@H](C)O)NC(=O)[C@H](CCN)NC(=O)[C@H](CCCNC(=N)N)NC(=O)[C@H](CC(N)=O)NC1=O)[C@@H](C)O [Example 119, Lys-Lys-Pro-Val-Hyp-Ile-Thr-Tyr-Cys-Asn-Arg-Dab-Thr-^DDab-Lys-Cys-Dab-Arg-Tyr] (HELM PEPTIDE1{K.K.P.V.[Hyp].I.T.Y.C.N.R.[Dab].T.[NCC[C@@H](N[*:1])C(=O)[*:2]].K.C.[Dab].R.Y}$PEPTIDE1,PEPTIDE1,9:R3-16:R3$$$V2.0)	0.03125 mg/L	0.0625 mg/L	0.03125 mg/L	1%	–
CC[C@H](C)[C@H](NC(=O)[C@@H]1C[C@@H](O)CN1C(=O)[C@@H](N)C(C)C)C(=O)N[C@@H](CC(C)C)C(=O)N[C@@H](Cc1ccc(O)cc1)C(=O)N[C@@H]1C(=O)N[C@@H](CC(N)=O)C(=O)N[C@@H](CCCNC(=N)N)C(=O)N[C@@H](CCN)C(=O)N[C@@H]([C@@H](C)O)C(=O)N[C@H](CCN)C(=O)N[C@@H](CCCCN)C(=O)N[C@H](C(=O)N[C@@H](CCN)C(=O)N[C@@H](CCCNC(=N)N)C(=O)N[C@@H](Cc2ccc(O)cc2)C(=O)O)CSSC1(C)C [Example 156] (HELM PEPTIDE1{V.[Hyp].I.L.Y.[Pen].N.R.[Dab].T.[NCC[C@@H](N[*:1])C(=O)[*:2]].K.C.[Dab].R.Y}$PEPTIDE1,PEPTIDE1,6:R3-13:R3$$$V2.0)	–	0.5 mg/L	0.25 mg/L	0%	0.25 mg/L
CCCC[C@H](NC(=O)[C@H](CCCNC(=N)N)NC(=O)[C@H](CCCN)NC(=O)[C@@H]1CSSC(C)(C)[C@H](NC(=O)[C@H](Cc2ccc(O)cc2)NC(=O)[C@@H](NC(=O)[C@@H](NC(=O)CN(CCN)C(=O)[C@@H](NC(=O)CNCCN)C(C)C)[C@@H](C)CC)[C@@H](C)CC)C(=O)N[C@@H](CC(N)=O)C(=O)N[C@@H](CCCNC(=N)N)C(=O)N[C@@H](CCN)C(=O)N[C@@H]([C@@H](C)O)C(=O)N[C@H](CCN)C(=O)N[C@@H](CCCN)C(=O)N1)C(=O)O [Example 16, Ndab-Val-Ndab-Ile-Ile-Tyr-Pen-Asn-Arg-Dab-Thr-^DDab-Orn-Cys-Orn-Arg-Nle] (H-[Gly(N-2-aminoethyl)]V[Gly(N-2-aminoethyl)]IIY[Pen]NR[Dab]T[dDab][Orn]C[Orn]R[Nle]-OH; disulfide 7-14)	0.125 mg/L	0.25 mg/L	0.125 mg/L	0%	–
